Reference: patent US20210315799A1, “Composition for Promoting Differentiation or Proliferation of Human Adipose-Derived Stem Cell” (LG Household & Health Care Ltd., priority 2018, published 2021)

Tests used:
Type in all cases: cell-based
[1] = system: human adipose-derived stem cells; assay: Quantified differentiation: eluted Oil Red O, absorbance at 490 nm (Example 3); settings: Oil Red O eluted with isopropanol, absorbance 490 nm; compared with negative control (differentiation medium only); FIG. 2
Method: (§1) Human adipose-derived stem cells were purchased from Lonza, Inc. (Walkersvile, Md., USA) and cultured according to guidelines of Lonza, Inc. Differentiation into adipose cells was evaluated using a differentiation medium recommended by Lonza, Inc. As a positive control, the cells were treated with 1 μM rosiglitazone together with the differentiation medium. In order to induce differentiation of human adipose-derived stem cells into adipose cells, a cell culture solution was removed at 3 to 5 days after cell culturing was initiated, and the cells were treated with formononetin, acetyl mandelic acid, Magnoliae cortex extract, and the positive control for 14 days.
(§2) At 14 days after differentiation was initiated, the cell culture solution was removed, and the cells were washed with a phosphate buffer (DPBS) and immobilized using 10% formalin. The immobilized cells were observed using a microscope after staining fats and lipids contained in the adipose cells with Oil Red 0.
Cultured human adipose-derived stem cells were treated with 12 types of the compounds including formononetin and a Magnoliae cortex extract and an Aloe vera extract in the same manner as in Example 2. Stained Oil Red 0 was eluted using a 100% isopropanol solution, and absorbance thereof was measured at a wavelength of 490 nm and quantified. […] It was confirmed that the substances according to the present invention promoted differentiation of human adipose-derived stem cells into adipose cells and effectively promoted differentiation into adipose cells compared to non-differentiation substances such as kaempferol. Thus, the compositions including the substances according to the present invention may be used for anti-aging purposes to enhance skin elasticity and reduce skin wrinkles by promoting differentiation of human adipose-derived stem cells and increasing the number of subcutaneous fat cells.

[2] = system: human adipose-derived stem cells; assay: Cell activity / proliferation by CCK-8 kit (Example 6); settings: for cell activity rates / proliferation of human adipose-derived stem cells compared to a control: FIG. 6; for concentration at which the substance showed the highest cell activity: tested at 0.2 ppm, 2 ppm and 20 ppm
Method: Human adipose-derived stem cells were purchased from Lonza, Inc. (Walkersville, Md., USA) and incubated in a CO2 incubator at 37° C. under 5% CO2 conditions. After the human adipose-derived stem cells were treated with 0.2 ppm, 2 ppm, and 20 ppm, respectively, cell activities thereof were identified using a CCK-8 kit (Dojindo).

[3] = system: human adipose-derived stem cells; assay: Oil Red O staining of differentiated adipose cells, observed by microscope (Example 2); settings: treated 14 days; compared with negative control treated only with differentiation medium; FIG. 1
Method: as §1, §2

Compound	relative differentiation rate of human adipose-derived stem cells into adipose cells [1]	cell activity rates / proliferation of human adipose-derived stem cells compared to a control [2]	concentration at which the substance showed the highest cell activity [2] [ppm]	effects on differentiation of human adipose-derived stem cells into adipose cells (Oil Red O staining) [3]
O=C(O)/C=C/c1ccc(O)c(O)c1 [caffeic acid]	effectively promote differentiation	significantly increased	20	
Cc1cc(O)c2c(c1)C(=O)c1cc(O)cc(O)c1C2=O [emodin]	effectively promote differentiation			
O=C(O)CCCC[C@@H]1CCSS1 (racemic) [thioctic acid]		significantly increased	20	
Cc1cc2nc3c(=O)[nH]c(=O)nc-3n(C[C@H](O)[C@H](O)[C@H](O)CO)c2cc1C [lactoflavin, riboflavin]		significantly increased	20	
COC1=C(OC)C(=O)C(C/C=C(\C)CC/C=C(\C)CC/C=C(\C)CC/C=C(\C)CC/C=C(\C)CC/C=C(\C)CC/C=C(\C)CC/C=C(\C)CC/C=C(\C)CCC=C(C)C)=C(C)C1=O [ubiquinone, ubiquinone 10]	effectively promote differentiation			
terpineol		significantly increased	20	
CC(=O)CCc1ccc(O)cc1 [raspberry ketone]		significantly increased	20	
Cc1cc(S(=O)(=O)[O-])c2c(C)ccc(C(C)C)cc1-2.[Na+] [sodium guaiazulene sulfonate]	effectively promote differentiation			
CC(C)=CCC[C@@H](C)[C@H]1CC[C@@]2(C)C3=C(CC[C@]12C)[C@@]1(C)CC[C@H](O)C(C)(C)[C@@H]1CC3 [lanosterol]		significantly increased	2	
laccaic acid	effectively promote differentiation			
COc1ccc(-c2coc3cc(O)ccc3c2=O)cc1 [formononetin]	effectively promote differentiation			superior to those of the negative control
O=C(O)/C=C/c1cccc(O)c1 [hydroxycinnamic acid, m-coumaric acid]	effectively promote differentiation			
CC1(C)[C@@H](O)CC[C@]2(C)[C@H]3C(=O)C=C4[C@@H]5C[C@@](C)(C(=O)O)CC[C@]5(C)CC[C@@]4(C)[C@]3(C)CC[C@@H]12 [glycyrrhetinic acid]		significantly increased	20	
CC(=O)OC(C(=O)O)c1ccccc1 (stereo not shown) [acetyl mandelic acid, O-acetyl mandelic acid]	effectively promote differentiation			superior to those of the negative control
CC1=C[C@H](O)CC(C)(C)[C@H]1/C=C/C(C)=C/C=C/C(C)=C/C=C/C=C(C)/C=C/C=C(C)/C=C/C1=C(C)C[C@@H](O)CC1(C)C [xanthophyll, lutein]	effectively promote differentiation	significantly increased	20	
O=c1c(O)c(-c2ccc(O)cc2)oc2cc(O)cc(O)c12 [kaempferol, reference compound]	non-differentiation			
CCCCCCCCCCCCCCCC(N)=O [palmitamide]	effectively promote differentiation			
CC(C)c1cc2c(c(O)c1O)[C@@]1(C(=O)O)CCCC(C)(C)[C@@H]1CC2 [carnosic acid]	effectively promote differentiation	significantly increased	2	
O=c1cccccc1O [tropolone]		significantly increased	2	
Cc1cc2nc3c(=O)[nH]c(=O)nc-3n(C[C@H](O)[C@H](O)[C@H](O)COP(=O)([O-])O)c2cc1C.[Na+] [sodium riboflavin phosphate]		significantly increased	20	
CC1=CC(=O)c2ccccc2C1=O [menadione]		significantly increased	0.2	
O=C(O)c1cc(O)c(O)c(O)c1 [gallic acid]		significantly increased	20	
